In US12697311B2, “Tetrahydrocurcumin compositions, methods of making, and methods of using the same” (Renibus Therapeutics, Inc., priority 2019, dated 2026):
“Also recorded” adds a separate entry of the source.

Test: Plasma pharmacokinetics after single oral dose in male rats
Format: in vivo
Settings: single 100 mg oral dose; for AUC(0-t) / Cmax / Tmax: rat, plasma, N=3; for AUC(0-t) / Cmax: geometric mean; for Tmax: median
Protocol: The d6-THCu was formulated at a concentration of 10% w/w in the amounts and ratios provided below:
Compositions were prepared according to the following process. Set up the 5 L jacketed reaction vessel and Julabo circulation heater. Begin heating the Julabo to 90° C. Dispense Phosal 75 SA, Captex 300, and Labrasol ALF (Items 2, 3, and 4) into appropriately sized containers. Add sthe Phosal 75 SA, Captex 300, and Labrasol ALF to the 5 L reaction vessel. Mix contents until visually homogenous and product reaches a temperature of 85° C.±5° C. Add Tetrahydrocurcumin to vessel containing Phosal 75 SA, Captex 300, and Labrasol ALF while stirring. Mix until completely dissolved and visually homogenous. Reduce the Julabo temperature and allow the solution to cool to 30° C.±5° C. while continuing to stir. Package product by adding 50 mL to appropriate 60 mL bottles. Continue until product is exhausted.
The d6-THCu version of the compound provides a desirable release profile compared to non-deuterated THCu. Compositions were prepared using THCu as well as d6-THCu and their pk profiles were compared.
The plasma concentrations of THCu and THCu-d6 was compared by administering single doses of 100 mg to male rats. […] Individual animal pharmacokinetic parameters comparing THCu and d6-THCu is shown in FIG. 4, and statistics for the individual animal pharmacokinetic parameters is shown in FIG. 5.
Graphs of individual animal plasma concentrations versus time are shown in FIGS. 6-7 (linear axes) and FIGS. 8-9 (semi-logarithmic axes).

Compound	AUC(0-t)	Cmax	Tmax	plasma concentration versus time / release profile (compared with non-deuterated THCu)
COc1cc(CCC(=O)CC(=O)CCc2ccc(O)c(OC)c2)ccc1O [THCu, tetrahydrocurcumin]	38300 ng·h/mL	4070 ng/mL	1 h	
[2H]C([2H])([2H])Oc1cc(CCC(=O)CC(=O)CCc2ccc(O)c(OC([2H])([2H])[2H])c2)ccc1O [THCu-d6, d6-Tetrahydrocurumin]	43000 ng·h/mL	2820 ng/mL	24 h	more stable release profile than the non-deuterated version; also recorded: no burst release of active agent after administration
